The target of one assay is T1, mPGES-1 (Homo sapiens, UniProt O14684).
T1 construct: Determination of PGE2 synthase activity in microsomes of A549 cells; endogenous in cells; host or cells: A549 cells (microsomal membranes)
T1 sequence (O14684 1-152): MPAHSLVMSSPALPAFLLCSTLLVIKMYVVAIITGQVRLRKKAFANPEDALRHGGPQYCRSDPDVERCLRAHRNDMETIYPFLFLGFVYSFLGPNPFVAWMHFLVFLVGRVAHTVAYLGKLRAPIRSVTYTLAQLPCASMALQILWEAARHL
The assay can be described thus: Determination of PGE2 synthase activity in microsomes of A549 cells. Format: biochemical. The note with it: PGH2 substrate, 15 min preincubation at 4°C, read-out: mPGES-1 (IC50 in µmol l^-1). As for the experimental part:
Example 9 - Determination of PGE2 synthase activity in microsomes of A549 cells
(A. Koeberle, F. Pollastro, H. Northoff and O. Werz, Br. J. Pharmacol. 2009, 156, 952-961.)
Microsomal membranes were diluted in potassium phosphate buffer (0.1 mol·1^-1, pH 7.4) containing 2.5 mmol·l^-1 glutathione.
Test compounds or vehicle were added, and after 15 min at 4°C the reaction ([…]) was initiated by addition of PGH2 ([…], final concentration). After 1 min at 4°C, the reaction was terminated by using stop solution (100 ml; 40 mmol·l^-1 FeCl2, 80 mmol·l^-1 citric acid and 10 mmol·l^-1 of 11b-PGE2). PGE2 was separated by solid phase extraction on reversed phase (RP)-C18 material by using acetonitrile (200 ml) as eluent, and analysed by RP-HPLC (30% acetonitrile in water + 0.007% TFA (v,v), Nova-Pak® C18 column, 5 x 100 mm, 4 mm particle size, flow rate 1 m-·min^-1) with UV detection at 195 nm. 11b-PGE2 was used as internal standard to quantify PGE2 product formation by integration of the area under the peaks.

Assay [1] concerns the target T2, 5-LO (Homo sapiens, UniProt P09917).
T2 sequence (P09917 1-674): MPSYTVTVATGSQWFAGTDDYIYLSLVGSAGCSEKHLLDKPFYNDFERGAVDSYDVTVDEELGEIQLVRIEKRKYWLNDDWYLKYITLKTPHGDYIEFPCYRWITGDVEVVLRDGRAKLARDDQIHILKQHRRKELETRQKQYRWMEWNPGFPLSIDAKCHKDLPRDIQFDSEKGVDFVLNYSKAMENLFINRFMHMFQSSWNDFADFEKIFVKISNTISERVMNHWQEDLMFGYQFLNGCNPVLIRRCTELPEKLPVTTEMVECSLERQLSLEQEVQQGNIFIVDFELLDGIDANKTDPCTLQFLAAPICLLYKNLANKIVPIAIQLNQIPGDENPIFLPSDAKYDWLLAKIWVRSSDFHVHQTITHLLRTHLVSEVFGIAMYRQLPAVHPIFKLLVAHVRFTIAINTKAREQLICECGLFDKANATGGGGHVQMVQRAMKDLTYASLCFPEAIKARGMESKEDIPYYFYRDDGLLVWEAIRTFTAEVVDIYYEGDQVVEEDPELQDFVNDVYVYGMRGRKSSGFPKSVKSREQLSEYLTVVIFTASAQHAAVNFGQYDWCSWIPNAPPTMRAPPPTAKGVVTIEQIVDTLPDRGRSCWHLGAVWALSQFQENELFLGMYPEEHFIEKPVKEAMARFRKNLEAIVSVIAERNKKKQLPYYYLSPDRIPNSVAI
Put plainly: 5-LO product formation of purified 5-LO enzyme (cell-free assay). In kind it is biochemical. The note with it: 10 µM AA, 2 mM CaCl2, read-out: 5-LO cell-free assay (IC50 in µmol l^-1). As for the experimental part: (§1) To assay 5- and 15-lipoxygease (LO) product formation in intact cells, 7.5 x 10^6 freshly isolated PMNLs were finally resuspended in 1 ml of PGC buffer. After preincubation with the test compounds for 10 min at 37°C, the reaction was started by the addition of 1 µM ionomycin plus 20 µM AA. After 10 min at 37°C, the reaction was stopped with 1 ml of methanol and 30 µl of 1 N HCl, and 200 ng of prostaglandin B1 and 500 µl of PBS were added. Formed AA metabolites were extracted and analyzed by HPLC. To determine product formation of purified 5-LO enzyme, 5-LO protein (0.1 µg in 10 µl) was added to 990 µl of PBS containing 1 mM EDTA and 1 mM ATP on ice and the indicated compounds were added. After 5 to 10 min on ice, the samples were preincubated for 30 s at 37°C and CaCl2 and AA (2 mM and 10 µM, respectively) were added to start the 5-LO reaction. After 10 min, the incubation was terminated and 5-LO product formation was determined as described for the intact cells.

A further assay deals with Cell lines. The assay can be described thus: Determination of cell viability by MTT assay (apoptose induction). In kind it is cell-based. The note with it: cell line not given, read-out: Apoptose induction (EC50 in µmol l^-1). As for the experimental part:
Example 11 - Determination of cell viability by MTT assay
(I. Tretiakova, D. Blaesius, L. Maxia, S. Wesselborg, K. Schulze-Osthoff, J CinatlJr., M. Michaelis, O. Werz, Apoptosis 2008, 13, 119-131.)
Cell viability was assessed using the MTT assay. Cell lines were incubated at 37°C and 5% CO2 atmosphere with the indicated additives for 5 days. PBMC were treated for 40 h and in some experiments, MM6 cells were only treated for 24 h. DMSO was used as solvent never exceeding 0.5% (vol/vol). Then, MTT reagent was added for 4 h. Thereafter, 100 II SDS solution (20% SDS in a 1:1 (vol by vol) dimethylformamide/ water solution) was added for 4 h. Plates were read on a multiwell scanning spectrophotometer (Victor3 plate reader, PerkinElmer, Rodgau-Juegesheim, Germany) at a wavelength of 620 nm and a reference wavelength of 690 nm. Induction of cell death was determined as the relative reduction of the optical density.
In general terms: Tetrazolium dyes change colour on reduction, which living cells bring about.

The target in assay [2] is T2, 5-LO. The assay can be described thus: 5-LO product formation in intact PMNLs (cell-based assay). The note with it: 1 µM ionomycin plus 20 µM AA, read-out: 5-LO cell-based assay (IC50 in µmol l^-1). How it is done: as §1

This passage reports IC50 and EC50 results from patent publication EP2695874A1, “Myrtucommulone analogues” (Universität des Saarlandes, priority 2012, dated 2014).

SMILES strings stand for the structures. Bounds are passed on as bounds.

`CC(C)CC(=O)c1c(O)c(C(C2=C(O)c3ccccc3C2=O)c2ccccc2)c(O)c(C(C2=C(O)c3ccccc3C2=O)c2ccccc2)c1O` (racemic) [(If), 2,2'-(2,4,6-Trihydroxy-5-(3-methylbutanoyl)-1,3-phenylene)bis(phenylmethylene)bis(3-hydroxy-1H-inden-1-one)]: the IC50 is 190 nM on mPGES-1, 460 nM at 5-LO [1] and 690 nM at 5-LO [2]. In the assay with Cell lines, the 50% effective concentration (EC50) is above 30000 nM.

For `CC(C)C(=O)c1c(O)c(C(C2=C(O)c3ccccc3C2=O)c2ccccc2)c(O)c(C(C2=C(O)c3ccccc3C2=O)c2ccccc2)c1O` (racemic) [Compound (Ie), 2,2'-(2,4,6-Trihydroxy-5-isobutyryl-1,3-phenylene)bis(phenylmethylene)bis(3-hydroxy-1H-inden-1-one)], the IC50 came to 550 nM at mPGES-1, 730 nM on 5-LO [1] and 620 nM on 5-LO [2]. Besides, the EC50 in the assay on Cell lines is above 30000 nM.

Turning to `CC(C)CC(=O)c1c(O)c(C(C2=C(O)c3ccccc3C2=O)C(C)C)c(O)c(C(C2=C(O)c3ccccc3C2=O)C(C)C)c1O` (centres unmarked) [Compound (Ic), 2,2'-(1,1'-(2,4,6-Trihydroxy-5-(3-methylbutanoyl)-1,3-phenylene)bis(2-methylpropane-1,1-diyl))bis(3-hydroxy-1H-inden-1-one)], the IC50 on mPGES-1 stood at 180 nM; on 5-LO [1], 300 nM; at 5-LO [2], 1040 nM. Moreover, the EC50 in the assay with Cell lines was above 30000 nM.

For `CC(C)C(=O)c1c(O)c(C(C2=C(O)c3ccccc3C2=O)C(C)C)c(O)c(C(C2=C(O)c3ccccc3C2=O)C(C)C)c1O` (centres unmarked) [Compound (Ia), 2,2'-(1,1'-(2,4,6-Trihydroxy-5-isobutyryl-1,3-phenylene)bis(2-methylpropane-1,1-diyl))bis(3-hydroxy-1H-inden-1-one)], the results for the IC50 at mPGES-1, at 5-LO [1] and on 5-LO [2] were 300 nM, 2800 nM and 6700 nM, respectively. The EC50 in the assay with Cell lines is above 30000 nM.

Turning to `CCCCCC(=O)c1c(O)c(C(C2=C(O)c3ccccc3C2=O)c2ccccc2)c(O)c(C(C2=C(O)c3ccccc3C2=O)c2ccccc2)c1O` (racemic) [Compound (Ig), 2,2'-(5-Hexanoyl-2,4,6-trihydroxy-1,3-phenylene)bis(phenylmethylene)bis(3-hydroxy-1H-inden-1-one)], the IC50 at mPGES-1 is 390 nM; on 5-LO [1], 1100 nM; at 5-LO [2], 2090 nM. Moreover, the EC50 with Cell lines is above 30000 nM.

In the case of `CC(C)C(C1=C(O)c2ccccc2C1=O)c1c(O)c(C(=O)c2ccccc2)c(O)c(C(C2=C(O)c3ccccc3C2=O)C(C)C)c1O` (centres unmarked) [Compound (Id), 2,2'-(1,1'-(5-Benzoyl-2,4,6-trihydroxy-1,3-phenylene)bis(2-methylpropane-1,1-diyl))bis(3-hydroxy-1H-inden-1-one)], the figures for the IC50 on mPGES-1, on 5-LO [1] and on 5-LO [2] were 680 nM, 6860 nM and 3230 nM, respectively. Also, in the assay with Cell lines, the EC50 was above 30000 nM.

For `O=C1C(C(c2ccccc2)c2c(O)c(C(=O)c3ccccc3)c(O)c(C(C3=C(O)c4ccccc4C3=O)c3ccccc3)c2O)=C(O)c2ccccc21` (racemic) [(Ih), 2,2'-(5-Benzoyl-2,4,6-trihydroxy-1,3-phenylene)bis(phenylmethylene)bis(3-hydroxy-1H-inden-1-one)], the IC50 on mPGES-1 is 330 nM; at 5-LO [1], 2990 nM; at 5-LO [2], 840 nM. In the assay with Cell lines, the EC50 is above 30000 nM.

On to `CCCCCC(=O)c1c(O)c(C(C2=C(O)c3ccccc3C2=O)C(C)C)c(O)c(C(C2=C(O)c3ccccc3C2=O)C(C)C)c1O` (centres unmarked) [Compound (Ib), 2,2'-(1,1'-(5-Hexanoyl-2,4,6-trihydroxy-1,3-phenylene)bis(2-methylpropane-1,1-diyl))bis(3-hydroxy-1H-inden-1-one)], for which the IC50 was 80 nM on mPGES-1, 1740 nM at 5-LO [1] and 1460 nM on 5-LO [2]. Besides, the EC50 with Cell lines was above 30000 nM.

As usually defined, the IC50 is the concentration at which inhibition is half-maximal. In general, EC50 refers to the concentration needed to bring the measured effect to its halfway point.
